# Where two headings read alike, the source gives them in different places.
# Experiments:
# [1] = test system: relapsing remitting (RR) EAE; assay: Relapsing remitting EAE in Biozzi mice, combination study (Example 2.6); assay type: in vivo; parameters: MMS value / IMS value: scale not given here; settings: for inhibition at 5 mg/kg / inhibition at 12.5 mg/kg / inhibition at 25 mg/kg: Mus musculus, 1416 h
# Description: EAE is an animal model for multiple sclerosis. In the Biozzi AB/H EAE mice, a RR EAE can be induced. […] Re-injection of an encephalitogen can induce a chronic relapsing disease that enables measuring long-term effects on subsequent relapses rather than immediate effects.
# The EAE induction was performed according to procedure “RR-EAE.Biozzi” The Biozzi mice were weighed and injected subcutaneously and re-injected one week later with encephalitogenic agent (MSCH emulsion). 0.3 mL of the encephalitogenic agent containing 1.0 mg of MSCH and 200.0 μg of MT was injected subcutaneously, at two sites in the right flank of each mouse (0.15 mL at each site). The second injection was done in a similar manner in the left flank, one week later.
# On the day of first injection of encephalotigen, the Biozzi mice were randomly allocated to eight treatment groups as follows: Tables 16-17.
# The 5.0 mg/mL laquinimod stock solution was diluted 1:5 to yield 1 mg/mL.
# The mice in all the groups were administered daily by oral gavage a volume dose level of […] of the respective test formulations from the day the mice are allocated to the treatment groups (first injection of encephalitogen) for 59 consecutive days until the termination of the study.
# The mice were examined and scored according to the following table, until the termination of the study (60 days after initiation of treatment).
# The activity of the test articles for the first and second phase of RR EAE was calculated by comparing the incidence of disease, mortality, onset and duration of disease, group mean score and mean maximal score to the control group. Calculations were carried separately and together for the first and the second relapse.
# MOG-induced EAE = MOG-induced EAE with GA blocking and s.c. daily GA (Example 2.4); assay type: in vivo, C57B1 mice; parameters: key to MMS value / GMS value: clinical score per grading system; 1+ = sick, 5 = dead/killed; settings: alone or + GA 250 mg/kg s.c. daily 10 d
# Description: The C57B1 strain of mouse was selected, as it is an established EAE model.
# Laquinimod was administered daily orally for 30 days at dose level of 5.0 mg/kg or 25.0 mg/kg.
# Disease was induced in the mice by the injection of the encephalitogenic emulsion (MOG/CFA). Laquinimod was administered orally for 30 consecutive days from the initiation of the study.
# EAE induction EAE was induced by injecting the encephalitogenic mixture (emulsion) consisting of MOG (150.0 μg/mouse). A volume of 0.2 ml of emulsion was injected subcutaneously into the flanks of the mice. Pertussis toxin was injected intraperitoneally on the day of induction and 48 hours later (total amount was 0300 μg/mouse in 0.2 ml dosage volume).
# The emulsion (for groups 2 and 3 and groups 1 and 4 to 8) were made from equal parts of oil and liquid portions (1:1) in two syringes connected to each other with Leur lock, transferred to insulin syringe and 0.2 ml was injected to the right flank of each mouse. The dose of the MOG in all the groups (1 to 8) was 150 μg/mouse.
# The test concentrations of laquinimod were prepared in purified water. For high dose (25.0 mg/kg) 2.5 mg/mL stock solution were prepared (groups #3, 6 and 8). The stock solutions were diluted 1:5 to yield 0.5 mg/mL for dose level of 5.0 mg/kg for groups 5 and 7. Laquinimod was administered to the respective groups by gavage at a volume of 0.2 ml/mouse.
# Every day one tube was thawed and brought to RT.
# Clinical signs Scaring of EAE clinical signs was started from Day 10 post EAE induction and was continued daily until Day 30. The clinical signs were recorded according to a grading system described in the table 11 below
# mice having scores of 1 and above were considered sick. When the first clinical sign appeared all mice were given food soaked in water, which was spread on different places on the bedding of the cages. An animal which continued to have score 4 for three days was killed on humane grounds and given score 5 on the next day. For calculation purposes, the score of animals that were sacrificed or died was carried forward.
# • The number of sick animals in each group were summed. • The incidence of disease was calculated as
# • The number of dead or moribund animals in each group were summed. • The mortality of disease was calculated as
# • The mean duration of disease expressed in days was calculated as
# • The mean onset of disease expressed in days was calculated as
# • The mean maximal score (MMS) of each group was calculated as
# • The daily scores of each mouse in the test group were summed and the Individual mean daily score (IMS) was calculated as […]
# [2] = first and second attacks together, laquinimod 5.0 mg/kg oral daily 59 d, alone or + GA 12.5 mg/kg oral
# [3] = first and second attacks together, laquinimod 12.5 mg/kg oral daily 59 d
# [4] = first and second attacks together, laquinimod 25.0 mg/kg oral daily 59 d, alone or + GA 12.5 mg/kg oral
# [5] = first attack, LAQ 5.0 mg/kg oral daily, alone or + GA 12.5 mg/kg oral
# [6] = first attack, LAQ 12.5 mg/kg oral daily
# [7] = first attack, LAQ 25.0 mg/kg oral daily, alone or + GA 12.5 mg/kg oral
# [8] = second attack, LAQ 5.0 mg/kg oral daily, alone or + GA 12.5 mg/kg oral
# [9] = second attack, LAQ 12.5 mg/kg oral daily
# [10] = second attack, LAQ 25.0 mg/kg oral daily, alone or + GA 12.5 mg/kg oral
smiles,measurement,setting,value
CCN(C(=O)c1c(O)c2c(Cl)cccc2n(C)c1=O)c1ccccc1 [laquinimod],inhibition at 5 mg/kg,"[1]; first and second attacks together, laquinimod 5.0 mg/kg oral daily 59 d, alone or + GA 12.5 mg/kg oral, read-out: GMS % inhibition",21.7%
same,inhibition at 5 mg/kg,"[1]; first and second attacks together, laquinimod 5.0 mg/kg oral daily 59 d, alone or + GA 12.5 mg/kg oral, read-out: Incidence % inhibition",23.1%
same,inhibition at 5 mg/kg,"[1]; first and second attacks together, laquinimod 5.0 mg/kg oral daily 59 d, alone or + GA 12.5 mg/kg oral, read-out: MMS % inhibition",16.2%
same,inhibition at 12.5 mg/kg,"[1]; first and second attacks together, laquinimod 12.5 mg/kg oral daily 59 d, read-out: GMS % inhibition",43.5%
same,inhibition at 12.5 mg/kg,"[1]; first and second attacks together, laquinimod 12.5 mg/kg oral daily 59 d, read-out: Incidence % inhibition",23.1%
same,inhibition at 12.5 mg/kg,"[1]; first and second attacks together, laquinimod 12.5 mg/kg oral daily 59 d, read-out: MMS % inhibition",22.2%
same,inhibition at 25 mg/kg,"[1]; first and second attacks together, laquinimod 25.0 mg/kg oral daily 59 d, alone or + GA 12.5 mg/kg oral, read-out: GMS % inhibition",30.4%
same,inhibition at 25 mg/kg,"[1]; first and second attacks together, laquinimod 25.0 mg/kg oral daily 59 d, alone or + GA 12.5 mg/kg oral, read-out: Incidence % inhibition",30.8%
same,inhibition at 25 mg/kg,"[1]; first and second attacks together, laquinimod 25.0 mg/kg oral daily 59 d, alone or + GA 12.5 mg/kg oral, read-out: MMS % inhibition",27.8%
same,GMS value,[1]; [2],1.8
same,Incidence,[1]; [2],10/14
same,MMS value,[1]; [2],3.1
same,Mean Duration,[1]; [2],26.5 ± 17.0 days
same,Mortality,[1]; [2],0/14
same,GMS value,[1]; [3],1.3
same,Incidence,[1]; [3],10/14
same,MMS value,[1]; [3],2.8
same,Mean Duration,[1]; [3],17.5 ± 14.0 days
same,Mortality,[1]; [3],0/14
same,GMS value,[1]; [4],1.6
same,Incidence,[1]; [4],9/14
same,MMS value,[1]; [4],2.6
same,Mean Duration,[1]; [4],23.0 ± 16.4 days
same,Mortality,[1]; [4],0/14
same,IMS value,[1]; [5],42.9 ± 29.8
same,Incidence,[1]; [5],10/14
same,MMS % Inhibition 2,[1]; [5],19.4%
same,MMS value,[1]; [5],2.9 ± 1.9
same,Mean Duration,[1]; [5],15.4 ± 10.9 days
same,Mortality,[1]; [5],0/14
same,IMS % Inhibition 3,"[1]; first attack, LAQ 5.0 mg/kg oral daily, alone or + GA 12.5 mg/kg oral, listed as LAQ",15.6%
same,IMS % Inhibition 3,[1]; [6],53.3%
same,IMS value,[1]; [6],32.4 ± 24.9
same,Incidence,[1]; [6],10/14
same,MMS % Inhibition 2,[1]; [6],25.0%
same,MMS value,[1]; [6],2.7 ± 1.9
same,Mean Duration,[1]; [6],9.6 ± 8.6 days
same,Mortality,[1]; [6],0/14
same,IMS % Inhibition 3,[1]; [7],42.8%
same,IMS value,[1]; [7],39.7 ± 32.3
same,Incidence,[1]; [7],9/14
same,MMS value,[1]; [7],2.6 ± 2.0
same,Mean Duration,[1]; [7],13.9 ± 10.0 days
same,Mortality,[1]; [7],0/14
same,% Inhibition 1 (incidence),[1]; [8],1.8%
same,IMS % Inhibition 3,[1]; [8],18.4%
same,IMS value,[1]; [8],38.6 ± 28.5
same,Incidence,[1]; [8],10/14
same,MMS % Inhibition 2,[1]; [8],3.4%
same,MMS value,[1]; [8],2.8 ± 1.8
same,Mean Duration,[1]; [8],11.4 ± 11.5 days
same,Mortality,[1]; [8],0/14
same,% Inhibition 1 (incidence),[1]; [9],11.6%
same,IMS % Inhibition 3,[1]; [9],41.4%
same,IMS value,[1]; [9],27.7 ± 23.1
same,Incidence,[1]; [9],9/14
same,MMS % Inhibition 2,[1]; [9],13.8%
same,MMS value,[1]; [9],2.5 ± 2.0
same,Mean Duration,[1]; [9],7.9 ± 6.5 days
same,Mortality,[1]; [9],0/14
same,% Inhibition 1 (incidence),[1]; [10],21.5%
same,IMS % Inhibition 3,[1]; [10],29.2%
same,IMS value,[1]; [10],33.5 ± 32.2
same,Incidence,[1]; [10],8/14
same,MMS % Inhibition 2,[1]; [10],20.7%
same,MMS value,[1]; [10],2.3 ± 2.1
same,Mean Duration,[1]; [10],9.1 ± 8.6 days
same,Mortality,[1]; [10],0/14
same,% Inhibition 1 (incidence),MOG-induced EAE; LAQ 5.0 mg/kg oral daily 30 d,52.9%
same,GMS % Inhibition 3,MOG-induced EAE; LAQ 5.0 mg/kg oral daily 30 d,71.4%
same,GMS value,MOG-induced EAE; LAQ 5.0 mg/kg oral daily 30 d,0.6 ± 0.9
same,Incidence,MOG-induced EAE; LAQ 5.0 mg/kg oral daily 30 d,8/10
same,MMS % Inhibition 2,MOG-induced EAE; LAQ 5.0 mg/kg oral daily 30 d,55.9%
same,MMS value,MOG-induced EAE; LAQ 5.0 mg/kg oral daily 30 d,1.5 ± 1.8
same,Mean Duration,MOG-induced EAE; LAQ 5.0 mg/kg oral daily 30 d,4.2 ± 6.0 days
same,Mean Onset,MOG-induced EAE; LAQ 5.0 mg/kg oral daily 30 d,26.9 ± 6.0 days
same,Mortality,MOG-induced EAE; LAQ 5.0 mg/kg oral daily 30 d,0/20
same,% Inhibition 1 (incidence),MOG-induced EAE; LAQ 25.0 mg/kg oral daily 30 d,88.2%
same,GMS % Inhibition 3,MOG-induced EAE; LAQ 25.0 mg/kg oral daily 30 d,95.2%
same,GMS value,MOG-induced EAE; LAQ 25.0 mg/kg oral daily 30 d,0.1 ± 0.4
same,Incidence,MOG-induced EAE; LAQ 25.0 mg/kg oral daily 30 d,2/20
same,MMS % Inhibition 2,MOG-induced EAE; LAQ 25.0 mg/kg oral daily 30 d,91.2%
same,MMS value,MOG-induced EAE; LAQ 25.0 mg/kg oral daily 30 d,0.3 ± 1.0
same,Mean Duration,MOG-induced EAE; LAQ 25.0 mg/kg oral daily 30 d,0.8 ± 2.6 days
same,Mean Onset,MOG-induced EAE; LAQ 25.0 mg/kg oral daily 30 d,30.3 ± 2.6 days
same,Mortality,MOG-induced EAE; LAQ 25.0 mg/kg oral daily 30 d,0/20

# Reference: US20160038532A1, “Treatment of Multiple Sclerosis With Combination of Laquinimod and Glatiramer Acetate” (TEVA PHARMACEUTICAL INDUSTRIES, LTD., priority 2011, published 2016)
